# Columns and labels:
# Ctenocephalides felis = Ctenocephalides felis oral test; format: in vivo; settings: 100 ppm in citrated cattle blood; after 2 days
# Method: • Solvent: Dimethyl Sulfoxide
# To produce a suitable active ingredient formulation, 10 mg of active ingredient are mixed with 0.5 ml of dimethyl sulfoxide. Dilution with citrated cattle blood gives the desired concentration.
# About 20 unfed adult cat fleas (Ctenocephalides fells) are placed into a chamber which is closed at the top and bottom with gauze. A metal cylinder whose bottom end is closed with parafilm is placed onto the chamber. The cylinder contains the blood/active ingredient formulation, which can be imbibed by the fleas through the parafilm membrane.
# Musca domestica = Musca domestica test; format: in vivo; settings: 100 ppm; adult houseflies; after 2 days
# Method: (§1) • Solvent: dimethyl sulfoxide
# To produce a suitable active ingredient formulation, 10 mg of active ingredient are mixed with 0.5 ml of dimethyl sulfoxide, and the concentrate is diluted with water to the desired concentration.
# Vessels containing a sponge treated with sugar solution and the active ingredient formulation of the desired concentration are populated with 10 adult houseflies (Musca domestica).
# Spodoptera frugiperda = Spodoptera frugiperda spray test; format: in vivo; settings: 100 g/ha; after 7 days
# Phaedon cochleariae = Phaedon cochleariae spray test; settings: 100 g/ha; after 7 days
# Boophilus microplus = Boophilus microplus injection test; format: in vivo; settings: 20 μg/animal; assessed after 7 days
# Method: as §1
# 1 μl of the active ingredient solution is injected into the abdomen of 5 engorged adult female cattle ticks (Boophilus microplus). The animals are transferred into dishes and kept in a climate-controlled room.
# Tetranychus urticae = Tetranychus urticae spray test, OP-resistant (bean leaf discs); format: in vivo; settings: 100 g/ha; after 6 days
# Method: After 6 days, the efficacy in % is determined.
Structure (SMILES),efficacy (rate of extermination) (Ctenocephalides felis) [%],efficacy (rate of extermination) (Musca domestica) [%],efficacy (Spodoptera frugiperda) [%],efficacy (Phaedon cochleariae) [%],efficacy (laying of fertile eggs) (Boophilus microplus) [%],efficacy (Tetranychus urticae) [%]
CCC(=O)NCc1cc(-c2cnn(-c3c(Cl)cc(C4(C(F)(F)F)CC4)cc3Cl)c2)ccc1Cl [Ia-128],100,100,100,100,,
CCC(=O)NCc1cc(-c2cnn(-c3c(Cl)cc(C(F)(C(F)(F)F)C(F)(F)F)cc3OC(F)(F)F)c2)cnc1Cl [Ia-133],100,100,100,100,100,
CC(=O)NCc1cccc(-c2cnn(-c3c(Cl)cc(C(F)(C(F)(F)F)C(F)(F)F)cc3C(F)(F)F)c2)c1F [Ia-151],100,100,100,100,100,
N#Cc1cc(C(F)(C(F)(F)F)C(F)(F)F)cc(Cl)c1-n1cc(-c2cccc(CNC(=O)C3CC3)c2)cn1 [Ia-98],100,90,,100,100,90
CCC(=O)NCc1cc(-c2cnn(-c3c(Cl)cc(C(F)(C(F)(F)F)C(F)(F)F)cc3Cl)c2)ccc1C(F)(F)F [Ia-72],100,100,100,100,100,100
O=C(CC(F)(F)F)NCc1cc(-c2cnn(-c3c(Cl)cc(C(F)(C(F)(F)F)C(F)(F)F)cc3Cl)c2)ccc1Cl [Ia-35],100,100,100,,100,
CC(=O)NCc1cc(-c2cnn(-c3c(Cl)cc(C(F)(C(F)(F)F)C(F)(F)F)cc3Cl)c2)ccc1C(F)(F)F [Ia-74],100,100,100,100,100,100
CN(Cc1cc(-c2cnn(-c3c(Cl)cc(C(F)(C(F)(F)F)C(F)(F)F)cc3Cl)c2)ccc1Cl)S(C)(=O)=O [Ic-04],100,100,100,100,,100
CCC(=O)NCc1cc(-c2cnn(-c3c(Cl)cc(C(F)(C(F)(F)F)C(F)(F)F)cc3Cl)c2)cnc1Cl [Ia-132],100,100,100,100,100,
O=C(NCc1cccc(-c2cnn(-c3c(Cl)cc(C(F)(C(F)(F)F)C(F)(F)F)cc3Cl)c2)c1)C1CC1 [Ia-41],100,100,,100,100,
O=C(NCc1cc(-c2cnn(-c3c(Cl)cc(C(F)(C(F)(F)F)C(F)(F)F)cc3Cl)c2)cnc1Cl)C1CC1 [Ia-18],100,100,100,100,100,
CC(C)CC(=O)NCc1cc(-c2cnn(-c3c(Cl)cc(C(F)(C(F)(F)F)C(F)(F)F)cc3C(F)F)c2)ccc1F [Ia-61],100,80,100,,100,70
CCC(=O)NCc1c(F)ccc(-c2cnn(-c3c(Cl)cc(C(F)(C(F)(F)F)C(F)(F)F)cc3Cl)c2)c1F [Ia-148],100,100,100,100,100,
